Results reported in ChEMBL document CHEMBL1201862, “PubChem BioAssay data set” (2004).
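A five-concentration, 48-hour dose response in 96-well plates underlies each endpoint, interpolated linearly between surrounding concentrations. GI50: concentration for 50% inhibition of growth.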 Activity calls are given as the source filed them. No stated cut-off is given here; in the data, active = GI50 up to about 1.1 µM and inactive = higher.

Columns and labels:
Assay in all cases: inhibition of tumour cell growth, NCI panel, 48 h
[1] = test system: M14
[2] = test system: MOLT-4
[3] = test system: ACHN
[4] = test system: SK-MEL-28
[5] = test system: SK-MEL-5
[6] = test system: CCRF-CEM
[7] = test system: OVCAR-4
[8] = test system: SW-620
[9] = test system: NCI-H460
[10] = test system: SF-295
[11] = test system: SNB-19
[12] = test system: HCT-116
[13] = test system: HCT-15
[14] = test system: Hs-578T
[15] = test system: K562
[16] = test system: SF-268
[17] = test system: MCF7
[18] = test system: UO-31
[19] = test system: A549
[20] = test system: HOP-92

SMILES | GI50 [1] | GI50 [2] | GI50 [3] | GI50 [4] | GI50 [5] | GI50 [6] | GI50 [7] | GI50 [8] | GI50 [9] | GI50 [10] | GI50 [11] | GI50 [12] | GI50 [13] | GI50 [14] | GI50 [15] | GI50 [16] | GI50 [17] | GI50 [18] | GI50 [19] | GI50 [20]
COCCCN1C(=O)C2c3[nH]c4ccccc4c3C3CCC(C(C)(C)C)CC3C2C1=O (stereo unspecified) | 18.4 µM (inactive) | 24.7 µM (inactive) | 27.4 µM (inactive) | 38 µM (inactive) | 27.4 µM (inactive) | 22.6 µM (inactive) | 31.5 µM (inactive) | 30.6 µM (inactive) | 18.7 µM (inactive) | 24.1 µM (inactive) | 33 µM (inactive) | 19.8 µM (inactive) | 19.8 µM | 32.1 µM (inactive) | > 10 µM (inactive) | 43.7 µM (inactive) | 20.6 µM (inactive) | 54.3 µM (inactive) | 32.6 µM (inactive) | 
COc1ccc(C(=O)/C=C/c2ccc(OCCSCCCCCCCCCCSCCOc3ccc(/C=C/C(=O)c4ccc(OC)cc4)cc3)cc2)cc1 | > 100 µM (inactive) | > 100 µM (inactive) | > 100 µM (inactive) | > 100 µM (inactive) | > 100 µM (inactive) | > 100 µM (inactive) | > 100 µM (inactive) | > 100 µM (inactive) | > 100 µM (inactive) | > 100 µM (inactive) | > 100 µM (inactive) | > 100 µM (inactive) | > 100 µM | > 100 µM (inactive) | > 100 µM (inactive) | > 100 µM (inactive) | > 100 µM (inactive) | > 100 µM (inactive) | > 100 µM (inactive) | 
CCCCCC(C)C[C@H]1CO[C@H](c2ccc[nH]2)N[C@H]1C(=O)OC (stereo partly specified) | > 100 µM (inactive) | > 100 µM (inactive) | > 100 µM (inactive) | > 100 µM (inactive) | > 100 µM (inactive) | > 100 µM (inactive) | > 100 µM (inactive) | > 100 µM (inactive) | > 100 µM (inactive) | > 100 µM (inactive) | > 100 µM (inactive) | > 100 µM (inactive) | > 100 µM | > 100 µM (inactive) |  | > 100 µM (inactive) | > 100 µM (inactive) |  | > 100 µM (inactive) | 29.9 µM (inactive)
O=C1NC(N2CCOCC2)=N/C1=C\c1ccc(Cl)cc1 | > 100 µM (inactive) | > 100 µM (inactive) | > 100 µM (inactive) | > 100 µM (inactive) |  | > 100 µM (inactive) | > 100 µM (inactive) | > 100 µM (inactive) |  | > 100 µM (inactive) | > 100 µM (inactive) | > 100 µM (inactive) | > 100 µM | > 100 µM (inactive) |  | > 100 µM (inactive) | > 100 µM (inactive) | > 100 µM (inactive) | > 100 µM (inactive) | > 100 µM (inactive)
COc1cc(Nc2ccc3c(c2)CCC3)nc(OC)n1 | 43.3 µM (inactive) | 0.0144 µM (active) | 28.2 µM (inactive) | > 100 µM (inactive) | 23.9 µM (inactive) | 49.7 µM (inactive) | 33.3 µM (inactive) | > 100 µM (inactive) | 30.8 µM (inactive) | 29.6 µM (inactive) | 43.6 µM (inactive) | 38.2 µM (inactive) | 27.8 µM | 6.58 µM (inactive) |  | 23.9 µM (inactive) | 29.6 µM (inactive) |  | 26.5 µM (inactive) | 32.4 µM (inactive)
CC1Cn2c(nc3ccccc32)NC1=O (stereo unspecified) | > 100 µM (inactive) | > 100 µM (inactive) | > 100 µM (inactive) |  | > 100 µM (inactive) | > 100 µM (inactive) | > 100 µM (inactive) | > 100 µM (inactive) | > 100 µM (inactive) | > 100 µM (inactive) | > 100 µM (inactive) | > 100 µM (inactive) | > 100 µM | > 100 µM (inactive) | > 100 µM (inactive) | > 100 µM (inactive) | > 100 µM (inactive) | > 100 µM (inactive) | > 100 µM (inactive) | > 100 µM (inactive)
COc1ccc(/C=C2\CN(C)C/C(=C\c3ccc(OC)c(OC)c3OC)C2=O)c(OC)c1OC | 0.073 µM (active) | 0.0685 µM (active) | 0.218 µM (active) | 0.147 µM (active) | 0.259 µM (active) | 0.019 µM (active) | 0.253 µM (active) | 0.155 µM (active) | 0.146 µM (active) | 0.272 µM (active) | 0.237 µM (active) | 0.111 µM (active) | 0.369 µM | 0.303 µM (active) | 0.0192 µM (active) | 0.164 µM (active) | 0.0507 µM (active) |  | 0.294 µM (active) | 0.617 µM (active)
C/C(=C\COP(=O)(O)OP(=O)(O)O)CCCOCc1ccccc1 | > 100 µM (inactive) | > 100 µM (inactive) | > 100 µM (inactive) | > 100 µM (inactive) | 46.5 µM (inactive) | < 0.01 µM (active) | > 100 µM (inactive) | > 100 µM (inactive) | > 100 µM (inactive) | > 100 µM (inactive) | > 100 µM (inactive) | > 100 µM (inactive) | > 100 µM | > 100 µM (inactive) | > 100 µM (inactive) | > 100 µM (inactive) | > 100 µM (inactive) | > 100 µM (inactive) | > 100 µM (inactive) | 
CC(=O)OC1CC[C@]2(C)C3CC[C@@]4(C)C(CCC4[C@H](C)CCCC(C)C)[C@@H]3CCC2(Br)C1 (stereo partly specified) | 18.5 µM (inactive) | 9.98 µM (inactive) | 9.91 µM (inactive) | 7.91 µM (inactive) |  | 10.2 µM (inactive) | 11.7 µM (inactive) | 9.42 µM (inactive) | 39.7 µM (inactive) | 34.8 µM (inactive) | 27.4 µM (inactive) | 9.29 µM (inactive) | 15.1 µM | 10.1 µM (inactive) | 15.5 µM (inactive) | 11.7 µM (inactive) | 10.5 µM (inactive) | 14 µM (inactive) | 19.8 µM (inactive) | 19.7 µM (inactive)
NS(=O)(=O)c1ccc(/N=N/c2ccc(O)c(C(=O)O)c2)cc1 [SALAZOSULFAMIDE] | > 100 µM (inactive) | > 100 µM (inactive) | > 100 µM (inactive) | > 100 µM (inactive) | > 100 µM (inactive) |  | > 100 µM (inactive) | > 100 µM (inactive) | > 100 µM (inactive) | > 100 µM (inactive) | > 100 µM (inactive) | > 100 µM (inactive) | > 100 µM | 23.6 µM (inactive) | > 100 µM (inactive) | > 100 µM (inactive) | > 100 µM (inactive) | > 100 µM (inactive) | > 100 µM (inactive) | > 100 µM (inactive)
O=c1c2ccccc2nc(-c2cccc([N+](=O)[O-])c2)n1O | 50.8 µM (inactive) |  | 38.5 µM (inactive) | > 100 µM (inactive) | 32.7 µM (inactive) |  | 33 µM (inactive) | 35.3 µM (inactive) | 29.2 µM (inactive) | 40.1 µM (inactive) | 53.2 µM (inactive) | 41.5 µM (inactive) | 17.8 µM | > 100 µM (inactive) | 4.22 µM (inactive) | 34.4 µM (inactive) | 24.4 µM (inactive) | 33.7 µM (inactive) | 34.9 µM (inactive) | 3.94 µM (inactive)
Cc1sc2nc(-c3ccc(Cl)c([N+](=O)[O-])c3)c(/C=N/NC(=N)N)n2c1C | 1.53 µM (inactive) | 1.5 µM (inactive) | 1.46 µM (inactive) | 0.973 µM (active) | 1.53 µM (inactive) |  |  | 0.247 µM (active) | 1.63 µM (inactive) | 1.76 µM (inactive) | 1.48 µM (inactive) |  | 1.37 µM | 1.79 µM (inactive) | 2.39 µM (inactive) | 1.85 µM (inactive) | 0.685 µM (active) | 1.65 µM (inactive) | 1.62 µM (inactive) | 1.4 µM (inactive)
CC1C(c2ccccc2O)c2cc3c(cc2OC1N1CCOCC1)OCO3 (stereo unspecified) | 35.4 µM (inactive) | 25.8 µM (inactive) | 29.4 µM (inactive) | 40.6 µM (inactive) | 22.1 µM (inactive) | 20.7 µM (inactive) |  | 42.3 µM (inactive) | 20.6 µM (inactive) | 21.7 µM (inactive) | 40.7 µM (inactive) | 26.4 µM (inactive) | 31 µM | 19.4 µM (inactive) | 22.1 µM (inactive) | 43 µM (inactive) | 33 µM (inactive) | 26.7 µM (inactive) | 25.6 µM (inactive) | 27 µM (inactive)
CC(C)N1[C@@H]2CCCC[C@H]2N(C(C)C)[PH]1=O | > 100 µM (inactive) | > 100 µM (inactive) | > 100 µM (inactive) |  | > 100 µM (inactive) | > 100 µM (inactive) |  | > 100 µM (inactive) | > 100 µM (inactive) | > 100 µM (inactive) |  | > 100 µM (inactive) | > 100 µM | > 100 µM (inactive) | > 100 µM (inactive) | > 100 µM (inactive) | > 100 µM (inactive) | > 100 µM (inactive) | > 100 µM (inactive) | > 100 µM (inactive)
O=C(O)c1cc(-c2ccncc2)nc2ccccc12 | > 100 µM (inactive) | > 100 µM (inactive) | > 100 µM (inactive) | > 100 µM (inactive) | > 100 µM (inactive) |  | > 100 µM (inactive) | > 100 µM (inactive) | > 100 µM (inactive) | > 100 µM (inactive) | > 100 µM (inactive) | > 100 µM (inactive) | > 100 µM | > 100 µM (inactive) | > 100 µM (inactive) | > 100 µM (inactive) | > 100 µM (inactive) | > 100 µM (inactive) | > 100 µM (inactive) | > 100 µM (inactive)
